Read-outs that look alike come from different tables or passages of the source.
Tests used:
[1] = system: panel of 14 human cancer cell lines; test: MTT cell viability assay, whole panel; format: cell-based; set-up: key to Cytotoxicity: no impact (0); weak impact (+); strong impact (++); conditions: for Cytotoxicity: summary grade
Procedure: (§1) Distinct MTT cell viability and crystal violet cell proliferation assays were performed to assess the cytotoxicity of the compounds 1–6 on 14 human cancer cell lines. In the viability assay, cells with intact mitochondria and thus active dehydrogenases are competent to convert MTT to the corresponding insoluble formazan. The formazan can be photometrically detected after solubilization and allows for indirect conclusions about the viability of the cells as an IC50 value. In the crystal violet assay, cells are stained by the binding of the dye to the chromatin, thus allowing for a quantification of biomass that remains adherent after a treatment in comparison with a control after a specific time. Potency is defined as the growth inhibitory concentration 50% (GI50).
In addition to performing the cell viability assay under normoxia (19% atmospheric oxygen), incubations were also conducted under hypoxic conditions, i.e., atmospheric oxygen levels of 1% during the treatment for 48 h. Hypoxia is a favorable condition of the tumor microenvironment that is connected with poor outcome. Therefore, the low oxygen condition mimics better the tumor environment. The biological effect of the pentathiepins under this condition provides insight into their dependency for oxygen, which has been postulated a key component in the proposed mechanism of action (Figure 3). Consistent with the proposed mechanism of action for five of the compounds, potency decreased under hypoxic conditions; in fact for 6, the half-maximal inhibitory concentration exceeded the highest tested concentration of 10 µM in four cell lines (Figure 6, Table S3). […] In contrast to the other compounds, in some cell lines, the cytotoxic effects of 1 were more pronounced under oxygen-reduced incubation conditions (Figure 6), indicating a tangential role of oxygen availability for this pentathiepin. Especially for the breast cancer cell line MCF-7, the cytotoxicity increased substantially, indicated by a decrease of the IC50 from >10.0 µM to about 1.0 µM.
The effect of the pentathiepins on the viability of the cell lines was assessed via an MTT assay, performed as previously described. Healthy and viable cells convert the yellow soluble 3-(4,5-dimethylthiazol-2-yl)-2,5-diphenyltetrazolium bromide to the insoluble purple corresponding formazan, which can be spectrophotometrically measured. For this assay, 5000 cells (1 250 for LCLC-103H) in 0.1 mL of medium were seeded per well of a 96-well plate and incubated at standard conditions for 24 h prior to treatment. A serial dilution of the test compounds was prepared in medium, covering final concentrations from 10.0 to 0.04 µM, and 0.1 mL of the working solution was added to each well in triplicate. After 48 h, 20 µL of a 2.5 mg/mL MTT in PBS solution was pipetted into each well and further incubated for 4 h at standard conditions. Thereafter, medium was replaced with 50 µL DMSO, and the plates were put on a shaker for 5 min and subsequently read at λ = 570 nm, with a SpectraMax 384plus (Molecular Devices, Sunnyvale, CA, USA). The cell viabilities of the treatment conditions were calculated in relation to a solvent control sample. The absolute IC50 was calculated via nonlinear regression followed by interpolation of the dose–response graphs in Prism 7 (GraphPad, San Diego, CA, USA). The IC90 was derived from the IC50 by using the slope factor of the dose–response graph with the tool QuickCalcs from GraphPad (GraphPad Software, San Diego, CA, USA). […]

[2] = system: panel of 14 human cancer cell lines; test: crystal violet proliferation assay, whole panel; format: cell-based; set-up: key to Antiproliferative effect: no impact (0); weak impact (+); strong impact (++); conditions: for GI50: mean over the cell line panel, normoxia, read-out: GI50 CV, mean per compound; for Antiproliferative effect: summary grade
Procedure: as §1
The antiproliferative effect of the pentathiepins on human cancer cell lines was analyzed by crystal violet assay based on the protocol of a previous publication. […] After dissolving in ethanol, the optical density was measured. Here, 1000 cells (250 for LCLC-103H) in 0.1 mL of medium were seeded per well of a 96 well plate and incubated at standard conditions for 24 h prior to treatment to allow for adhesion of the cells. A serial dilution of the test compounds was prepared in medium, covering final concentrations from 10.0 to 0.04 µM and 0.1 mL of the working solution added to each well in triplicate. Additionally, samples for each cell line were seeded and directly fixed after 24 h to measure the cell density at the beginning of treatment (t0). Fixation was performed by replacing medium with 0.1 mL of a solution containing 1% glutaraldehyde in Dulbecco’s buffer (0.2 g/L KCl, 0.1 g/L MgSO4·7 H2O, 1.55 g/L Na2HPO4·7 H2O, 0.2 g/L KH2HPO4, and 8 g/L NaCl in water) for 20 min. Plates were stored in 0.1 mL of Dulbecco’s buffer until further processing. After 96 h of treatment, the same fixation process was applied to the plates containing cells and test compounds. To stain the cells, 0.1 mL of an aqueous solution of crystal violet (0.02%) was added per well for 20 min, then discarded and the plates afterwards rinsed in clear water for 30 min. The dye was extracted in 50 µL of ethanol per well during 2 h of shaking. The plates were read at λ = 570 nm using a SpectraMax 384plus (Molecular Devices, Sunnyvale, CA, USA), and the proliferation of the treatment conditions was calculated in relation to a solvent control sample after subtracting the background value of the T0-plates. The GI50 (half-maximal growth inhibitory concentration) was calculated via nonlinear regression followed by interpolation of the dose–response graphs in Prism 7 (GraphPad, San Diego, CA, USA). […]

DanG = test: cell cycle analysis (PI staining); format: cell-based, human; conditions: IC90, 24 and 48 h (Figure 19a)
Procedure: (§2) The potent cytotoxicity and the potential to inhibit the proliferation of cancer cells accompanied by DNA damage effects raised the question as to whether cell cycle progression might be affected as a result of treatment with pentathiepins.
(§3) Cells were harvested by trypsinization, collected in 1.5 mL tubes, and washed twice with PBS by centrifuging for 5 min at 500× g and discarding the supernatant after every step. For fixation, 500 µL of ice-cold ethanol (70%) was added dropwise under vortexing with a subsequent incubation on ice for 30 min. Then, the cells were centrifuged for 10 min at 4000 rpm and 4 °C, the supernatant was removed, and the cells were resuspended in 500 µL of PBS containing 25 µg/mL of PI and 100 µg/mL of RNase. The staining solution was incubated for 30 min, and the cell suspension was measured at λEx/Em = 488/655–730 nm using a MACSquant Analyzer 10 (Miltenyi Biotec, Teterow, Germany).

HAP-1.KO.GPx1 = test: cell cycle analysis (PI staining); format: cell-based, human; conditions: IC90, 24 h
Procedure: as §2, §3

HAP-1 = test: cell cycle analysis (PI staining); format: cell-based, human; conditions: IC90, 24 h
Procedure: as §2, §3

[3] = Homo sapiens, mean over the cell line panel, hypoxic, read-out: IC50 MTT-H, mean per compound
[4] = Homo sapiens, mean over the cell line panel, normoxic, read-out: IC50 MTT-N, mean per compound
[5] = mean over the cell line panel, normoxic, read-out: IC50 MTT-N, mean per compound

SMILES | IC50 [1, 3] [nM] | IC50 [1, 4] [nM] | IC50 [1, 5] [nM] | Cytotoxicity [1] | GI50 ([2]; Homo sapiens) [nM] | Antiproliferative effect [2] | cell cycle distribution vs control (DanG) | increase of cells in G2/M-phase (HAP-1.KO.GPx1) | increase of cells in G2/M-phase (HAP-1) | decrease of G0/G1-phase cells (DanG) | increase of cells in G2/M-phase (DanG) [%] | increase of cells in sub G1-phase (DanG) [%] | increase of cells in sub G1-phase (HAP-1.KO.GPx1) | increase of cells in sub G1-phase (HAP-1) | GI50 [2] [nM] | IC50 ([1]; Homo sapiens, hypoxic conditions, in four cell lines, exceeded highest tested concentration, read-out: half-maximal inhibitory concentration) [nM]
CCOc1c2c(c3cnc4[nH]c(-c5ccc(OC)cc5)cc4n13)SSSSS2 [Compound 1, 11-Ethoxy-2-(4-methoxyphenyl)-3H-[1,2,3,4,5]pentathiepino[6′,7′:3,4]pyrrolo[1,2-a]pyrrolo[2,3-e]pyrazine] | 487 | 720 | 716 | ++ | 333 | ++ | caused no differences from a normal cell cycle | No such effects were detected | No such effects were detected | – | – | – | – | – | – | –
CCOc1c2c(c3ccc(C(=O)N4CCCCC4)cn13)SSSSS2 [Compound 2, (6-Ethoxy-[1,2,3,4,5]pentathiepino[6,7-a]indolizin-9-yl)(piperidinyl)methanone] | 2190 | 1380 | – | + | 493 | + | – | ≤ 30% | ≤ 30% | roughly 15% | 6 | 8 | up to 10% | up to 10% | – | –
CCOc1c2c(c3ccc(C(=O)N4CCOCC4)cn13)SSSSS2 [Compound 3, (6-Ethoxy-[1,2,3,4,5]pentathiepino[6,7-a]indolizin-9-yl)(morpholino)methanone] | 1720 | 789 | – | ++ | 170 | ++ | – | ≤ 30% | ≤ 30% | roughly 15% | 6 | 8 | up to 10% | up to 10% | 174 | –
CCOc1c2c(c3ccc(C(=O)N(CC)CC)cn13)SSSSS2 [Compound 4, 6-Ethoxy-N,N’-diethyl-[1,2,3,4,5]pentathiepino[6,7-a]indolizine-9-carboxamide] | 2050 | 1010 | – | ++ | 322 | ++ | – | ≤ 30% | ≤ 30% | roughly 15% | 6 | 8 | up to 10% | up to 10% | – | –
CCOc1c2c(c3ccc(C(=O)N4CCN(C(=O)c5ccc(F)cc5)CC4)cn13)SSSSS2 [Compound 5, (6-Ethoxy-[1,2,3,4,5]pentathiepino[6,7-a]indolizin-9-yl)(4-(4-fluorobenzoyl)piperazinyl)methanone] | 1290 | 839 | – | ++ | 267 | ++ | – | ≤ 30% | ≤ 30% | roughly 15% | 6 | 8 | up to 10% | up to 10% | – | –
CCOc1c2c(c3ccc(C(=O)N4CCN(S(=O)(=O)c5ccc(C)cc5)CC4)cn13)SSSSS2 [Compound 6, (6-Ethoxy-[1,2,3,4,5]pentathiepino[6,7-a]indolizin-9-yl)(4-tosylpiperazinyl)methanone] | 2460 | 2360 | 2360 | + | 570 | + | caused no differences from a normal cell cycle | No such effects were detected | No such effects were detected | – | – | – | – | – | 671 | > 10000
